Experimental data taken from patent US20250206763A1, “ENPP1 INHIBITOR” (SHANGHAI QILU PHARMACEUTICAL RESEARCH AND DEVELOPMENT …, priority 2022, published 2025).
pEC50, pIC50: −log10 of the molar value.

How the values were obtained:
[1] = test system: MDA-MB-231 CM-THP1 (THP1-Dual Cells NF-κB-SEAP and IRF-Lucia luciferase Reporter Monocytes); test: Cell Activity Test 2: MDA-MB-231 cells treated with compound and cGAMP, supernatant transferred to THP1-Dual IRF-Lucia luciferase reporter cells; assay type: cell-based; conditions: 30 minutes pretreatment, cGAMP 24 hours, supernatant on THP1-Dual reporter cells 24 hours, QUANTI-Luc
From the text: THP1-Dual Cells NF-κB-SEAP and IRF-Lucia luciferase Reporter Monocytes cells (Invivogen, thpd-nfis), MDA-MB-231 cells (ATCC, CRM-HTB-26), RPMI-1640 medium (Gibco, 11875-093), FBS (Gibco, 10099), penicillin-streptomycin (Gibco, 15070063), HEPES (ThermoFisher, 15630080), L-glutamine (ThermoFisher, 25030081), Normocin-Antimicrobial Reagent (InVivoGen, ant-nr-1), Zeocin (Invivogen, ant-zn-1), Blasticidin (Invivogen, ant-bl-1), Mammalian (non-canonical) CDN, cyclic [G(2′,5′)pA(3′,5′)p] (referred to as cGAMP hereinafter, Invivogen, tlrl-nacga23-1), QUANTI-Luc (InvivoGen, rep-qlc2), Multimode Plate Reader (PerkinElmer, EnVision 2105 Alpha 680 nm Laser), and conventional cell culture consumables (NEST). […]
An appropriate amount of MDA-MB-231 cells in logarithmic growth phase was taken and centrifuged at 300×g for 5 minutes, and the supernatant was removed. The cells were re-suspended with MDA-MB-231 cell growth medium and counted, and the cell density was adjusted to 6×10^4 cells/mL. […]
After 24 hours, the resulting was centrifuged at 300×g for 5 minutes, 10 μL of cell supernatant was transferred to a new 384-well plate with a white opaque bottom, followed by the addition of 25 μL of QUANTI-Luc reaction solution to each well. They were shaken well for 1 minute away from light and the plate was read immediately.

MDA-MB-231 cells = test: Cell Activity Test 1: pNP-AMP hydrolysis on MDA-MB-231 cells, absorbance at 405; assay type: cell-based; conditions: Homo sapiens, 1 hour pre-incubation, 0.25 mM pNP-AMP, 5 hours of reaction, read-out: MDA-MB-231 cell biochemical IC50
Method: MDA-MB-231 cells were digested and suspended, the cell density was adjusted to 4.5×10^5 cells per milliliter, and the cells were seeded in 384 microtiter plates at 50 microliters per well. The cells were incubated in an incubator at 37° C. with […] for 24 h. After 24 h, the cell plates were taken out, the cell culture medium was pipetted and washed once with 50 μL of PBS. Then 20 μL of 1640 medium free of phenol red and serum was added per well, and 2× of compound was added with Tecan, with 1:3 dilution. The compounds were pre-incubated for 1 hour. Afterwards, the reaction was initiated by adding a substrate mixture (50 μL system, 0.5 mM pNP-AMP dissolved in 1640 medium free of phenol red and serum) at a final substrate concentration of 0.25 mM. Absorbance values were read at 405 nm in a microplate reader after 5 hours of reaction, 4-Parameter Logistic Curve model was applied to calculate the […] of the compounds, taking positive compounds as 100% inhibition and DMSO as 0% inhibition.

human ENPP1 = target: T1, human ENPP1 (Homo sapiens, UniProt P22413); test: In vitro enzyme activity assay: human ENPP1 enzymatic assay (cGAMP), AMP-Glo; assay type: biochemical; conditions: substrate cGAMP, AMP-Glo detection
T1 construct: purchased Biovendor AP-18-081; host or cells: HEK293
T1 sequence (P22413 1-925): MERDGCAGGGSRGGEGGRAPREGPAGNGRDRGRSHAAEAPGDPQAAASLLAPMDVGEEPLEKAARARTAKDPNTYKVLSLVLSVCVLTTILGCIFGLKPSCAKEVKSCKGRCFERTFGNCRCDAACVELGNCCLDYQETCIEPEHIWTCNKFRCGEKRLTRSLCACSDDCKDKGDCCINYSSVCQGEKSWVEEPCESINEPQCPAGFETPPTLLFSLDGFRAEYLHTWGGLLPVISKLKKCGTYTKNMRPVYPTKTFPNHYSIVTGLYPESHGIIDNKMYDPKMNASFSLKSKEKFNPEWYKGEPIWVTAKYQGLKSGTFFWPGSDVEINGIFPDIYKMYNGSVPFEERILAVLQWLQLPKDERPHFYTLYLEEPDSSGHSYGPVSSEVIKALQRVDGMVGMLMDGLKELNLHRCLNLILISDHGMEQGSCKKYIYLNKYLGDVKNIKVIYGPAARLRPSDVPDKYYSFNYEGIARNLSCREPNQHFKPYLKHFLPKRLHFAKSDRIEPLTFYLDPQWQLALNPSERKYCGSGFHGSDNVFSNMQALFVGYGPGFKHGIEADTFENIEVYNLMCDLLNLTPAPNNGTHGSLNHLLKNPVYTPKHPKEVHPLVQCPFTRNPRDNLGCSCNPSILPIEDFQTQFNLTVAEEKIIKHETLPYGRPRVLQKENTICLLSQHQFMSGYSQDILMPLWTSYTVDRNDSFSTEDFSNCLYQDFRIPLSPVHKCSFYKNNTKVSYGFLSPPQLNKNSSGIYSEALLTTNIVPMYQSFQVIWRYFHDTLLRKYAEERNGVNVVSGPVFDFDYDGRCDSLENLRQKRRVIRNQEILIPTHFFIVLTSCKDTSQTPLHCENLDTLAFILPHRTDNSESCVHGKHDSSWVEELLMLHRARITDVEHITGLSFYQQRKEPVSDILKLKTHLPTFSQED
Method: AMP-Glo Assay Kit (PROMEGA, V5012), ENPP-1-IN-1 (MCE, HY-129490), white opaque 384-well plate (Perkin Elmer, 6008289), Mammalian (non-canonical) CDN, cyclic[g(2′,5′)pA(3′,5′)p](referred to as cGAMP hereinafter, Invivogen, tlrl-nacga23-5), ENPP1 Protein Human HEK293 (Biovendor, AP-18-081).
• 1) Preparing 1× reaction buffer (Tris buffer), 1× enzyme buffer, and 1× substrate buffer; • 2) diluting the compounds using Echo550 and supplementing with DMSO; • 3) pre-loading 2.5 μL of enzyme solution on a reaction plate (adding 2.5 μL of buffer instead as negative control) and incubating it at room temperature; • 4) adding 2.5 μL of substrate solution to the system and incubating it at room temperature; • 5) adding 5 μL of AMP-Glo solution that has been allowed to cooled down to room temperature, centrifuging and reacting at room temperature, • 6) adding 10 μL of AMP Detection solution at room temperature, centrifuging and reacting at room temperature; and • 7) reading the plate using EnVision.

pEC50 [1]	pIC50 (MDA-MB-231 cells)	pIC50 (human ENPP1)	Structure (SMILES)
8.46	8.95	> 8.00	O=c1[nH]c2cnc3c4c(ccc3c2n1Cc1ccc(P(=O)(O)O)c(F)c1)OCO4 [Compound 1, (2-fluoro-4-((7-oxo-6,7-dihydro-8H-[1,3]dioxolo[4,5-h]imidazo[4,5-c]quinolin-8-yl)methyl)phenyl)phosphonic add]
		> 8.00	Cc1nc2cnc3c4c(ccc3c2n1Cc1ccc(P(=O)(O)O)c(F)c1)OCO4 [Compound 54, (2-fluoro-4-((7-methyl-8H-[1,3]dioxolo[4,5-h]imidazo[4,4-c]quinolin-8-yl)methyl)phenyl)phosphonic acid]
		> 8.00	COc1cc2c(ncc3[nH]c(=O)n(Cc4ccc(P(=O)(O)O)c(F)c4)c32)c2c1OCO2 [Compound 55]
		> 8.00	Cn1c(=O)n(Cc2ccc(P(=O)(O)O)c(F)c2)c2c3cn[nH]c3ncc21 [Compound 60]
		> 8.00	O=c1[nH]c2cnc3c4c(ccc3c2n1Cc1ccc(P(=O)(O)O)c(OCc2ccccc2)c1)OCO4 [Compound 61]
		> 8.00	NS(=O)(=O)c1cnc(Cn2c(=O)[nH]c3cnc4c5c(ccc4c32)OCO5)c(F)c1 [Compound 63]
7.84	8.01		COc1ccc2c(ncc3[nH]c(=O)n(Cc4ccc(P(=O)(O)O)c(F)c4)c32)n1 [Control Compound, reference compound]
